Data reported in patent US12171821B2, “Toxoplasma gondii vaccine” (priority 2018, dated 2024).
Several values for one entry are separate records, joined by “and”; a condition that tells them apart may be missing. Identical values can stand only once.

Key:
[1] = tested on: T. gondii ME49 bradyzoites; assay: Real-time PCR on ileum cDNA of infected Z-DNA binding protein knock out mice; type: in vivo, Toxoplasma gondii; settings: homogenized mouse ileum cDNA
Procedure: (§1) Delta-6-desaturase inhibition. SC 26196 (Cayman) was solubilized in DMSO and used at 20 μM in mouse organoid monolayers. For in vivo treatment, the inhibitor was solubilized in 0.5% m/v methylcellulose and the mice were given 50 mg/kg every 12 hours by oral gavage (He et al., 2012). 4-week old C57BL/6J female mice deleted in Z-DNA-binding protein (Pittman et al., 2016) were divided into four different groups: uninfected control, T. gondii-infected without fatty acid supplementation, T. gondii infected with linoleic acid supplementation, and T. gondii-infected with linoleic acid and SC 26196 inhibitor. Each mouse supplemented with linoleic acid received 10 μL of 99% linoleic acid oil (MilliporaSigma Cat #843483) suspended in 0.5% Methylcellulose per day by oral gavage. Mice were infected with 1000 brain cysts purified as described above by oral gavage and euthanized 7 days post infection. Sample size was at least 2 mice per group and the experiment was repeated 5 times. Alternatively, each mouse was infected with one mouse brain at least 2 months postinfection with at least 1000 cysts. Mice were treated with SC 26196 until day 5 postinfection. Feces were collected from days 5-14 and oocysts enumerated by microscopy.
Real-time PCR on ileum cDNA. Z-DNA binding protein deletion mice ice with and without delta-6-desaturase inhibitor treatment were euthanized 7 days post infection. The ileum of each mouse was removed and homogenized in 1 mL of TRIzol. Total RNA was isolated according to manufacturer's protocol (Invitrogen) and treated with amplification grade Dnase I. cDNA was generated using the Invitrogen SuperScript III First-Strand Synthesis kit with random hexamer primers. GRA11B and SAG1 were used as markers of sexual and asexual stages, respectively. The T. gondii housekeeping gene TUB1A was used to normalize target gene expression. Real-time quantitative PCR was performed using Bio-Rad iTaq Universal SYBR Green Supermix on 311 an Applied Biosystems StepOnePlus Real-Time PCR system. The efficiency of each primer set was calculated from the slope of a 1:10 dilution standard curve of tachyzoite gDNA, where E=10^(−1/slope). The Pfaffl method (Pfaffl, 2001), which accounts for differences in efficiencies, was then used to calculate the relative gene expression of GRA11B and SAG1 per sample, in triplicate. Only wells with one melt curve temperature were used, indicating a single product. Primer sequences were as follows:
Statistical methods. All real-time PCR fecal samples were run in triplicate technical replicates. The difference between the mean target gene copy numbers was analyzed by two-tailed unpaired t tests. The real-time PCR intestinal samples were run in triplicate from two biological replicates per group. The difference between the mean relative expression of each target gene was analyzed by two-tailed unpaired t tests.

asexual tachyzoite stage = settings: prior work (Shamseddin et al., 2015); cited from earlier work
T. gondii = assay: Real-time PCR (SAG1) on gDNA of mouse fecal samples; type: in vivo, Toxoplasma gondii; settings: gDNA of mouse fecal samples
Procedure: as §1
Real-time PCR on fecal samples. […] A standard curve was generated using a dilution series of 101-105 parasites per well amplified using the SAG1 primer set described above, based on a gDNA sample with known parasite quantity. […]
[formula] […] The calculated copy numbers of each sample were normalized based on the ng of nucleic acid used as PCR template. […]
Statistical methods. […] The difference between the mean target gene copy numbers was analyzed by two-tailed unpaired t tests. […] The difference between the mean relative expression of each target gene was analyzed by two-tailed unpaired t tests.

[2] = 7 days post infection, Mouse 1 and Mouse 2, wells 1-3

For CCCCC/C=C\C/C=C\CCCCCCCC(=O)O [linoleic acid], the “GRA11B raw Ct values” [1, 2] was 33.43 and 36.02 and 35.59 and 38.24 and 39.05, the “SAG1 raw Ct values” [1, 2] was 32.63 and 31.52 and 32.31 and 31.46 and 32.97 and 31.72 and the “GRA11B Ct mean” value ([1]; Mouse 1 and Mouse 2) was 37.13 and 36.02. The “SAG1 Ct mean” value ([1]; Mouse 1 and Mouse 2) was 32.63 and 31.57, the “cytotoxicity for the asexual tachyzoite stage” value (asexual tachyzoite stage) was “cytotoxic” and the “SAG1 Ct mean” value (T. gondii) was 35.84. The “SAG1 raw Ct values” (T. gondii; wells 1-3) was 37.02 and 36.43 and 34.08.
